{"source": "patent US20180085359A1", "about": "“USE OF CHELATORS OF DIVALENT CATIONS TO PROMOTE NERVE REGENERATION” (CHILDREN'S MEDICAL CENTER CORPORATION, priority 2012, published 2018)", "key": {"[1]": {"system": "RGC axons in the optic nerve", "experiment": "Optic nerve axon regeneration after optic nerve crush, GAP-43-positive axons distal to the crush site", "type": "in vivo, mouse", "details": "for effect on axon regeneration: intraocular injection, days 0 and 4 after ONC; for effect on axon regeneration / most effective concentration for axon regeneration: evaluated at 2 weeks; for maximally effective concentration for axon regeneration (unit not given): FIG. 4 / FIG. 7, 2 weeks after optic nerve injury, multiple injections; for added effect of pre-treatment (additional injection one day before ONC) on axon regeneration: compared with 2 post-injury injections; for most effective concentration for axon regeneration: intraocular injection immediately after optic nerve crush and 4 days later; for axon regeneration in combination with pten gene deletion: pten deleted in RGCs by AAV2-Cre, 2 weeks", "procedure": "(§1) Studies were performed at Children's Hospital Boston with the approval of the Institutional Animal Care and Use Committee. Experiments used male mice of the strain C57BL/6J (Jackson lab, Bar Harbor, Me.), at 8- to 10-week-old age.\n(§2) Adult mice were anesthetized with a combination of ketamine and xylazine given intraperitoneally. A conjunctival incision was made over the dorsal aspect of one eye, which is then gently rotated downward in the orbit. The orbital muscles were slightly separated to expose the optic nerve at its exit from the globe, which were then crushed for 5 seconds with jewelers' forceps (Dumont number 5) near the back of the eye (within 0.5 mm). […] Same volume PBS was injected intravitreally in control group.\n(§3) Mice were sacrificed with an overdose of anesthesia 14 d after optic nerve injury and were perfused with saline and 4% paraformaldehyde (PFA). […]. Optic nerves and eyes were dissected and postfixed in PFA. Nerves were impregnated with 30% sucrose, embedded in OCT Tissue Tek Medium (Sakura Finetek), frozen, cut in the longitudinal plane at 14 μm, and mounted on coated slides. Regenerating axons were visualized by staining with a sheep antibody to GAP-43 followed by a fluorescently labeled secondary antibody.\nAxon growth was quantified by counting the number of GAP-43-positive axons extending 0.5, 1, 1.5 and 2 mm from the end of the crush site in at least eight sections per case. The cross-sectional width of the nerve was measured at the point at which the counts were taken and was used to calculate the number of axons per millimeter of nerve width. The number of axons per millimeter was then averaged over the number of sections. Σad, the total number of axons extending distance din a nerve having a radius of r, was estimated by summing over all sections having a thickness t (14 μm):\nΣad=πr^2×[average axons/mm]/t"}, "[2]": {"system": "retinal ganglion cells (RGC)", "experiment": "RGC survival after optic nerve crush, βIII-tubulin-stained retinal whole mounts", "type": "in vivo, mouse", "details": "for RGC survival when chelator given only on Day 3: single administration 3 d after ONC", "procedure": "as §1, §2, §3\nImages of eight preselected areas, 2 mm from the optic disc were captured under fluorescent illumination (400×; E800; Nikon). βIII-Tubulin-positive cells were counted using NIH ImageJ software (Wayne Rasband, National Institutes of Health, Bethesda, Md.). Cell densities were averaged across all eight areas."}, "Bcl-xL": {"system": "Bcl-xL", "experiment": "Bcl-xL immunostaining of retinal cross-sections 5 days after optic nerve crush", "type": "in vivo, mouse", "excerpt": "(§4) FIG. 6A-FIG. 6C show results from experiments that indicate Chelation of free Zn^2+ suppresses molecular changes that lead to RGC apoptosis. A) Cross-sections through the normal retina or 5 days after optic nerve crush, with or without treatment with the Zn^2+ chelator TPEN. Sections were immunostained to detect the anti-apoptotic protein Bcl-xL or the pro-apoptotic enzymes Caspase-3 or -8. B) C) Quantitation of cellular changes (avg. number of stained cells per section). Optic nerve injury causes a marked elevation of Caspases-3 and -8. […] BclxL levels have not been quantified yet, but appear to decrease with optic nerve injury and to be partially preserved by TPEN treatment. gcl: ganglion cell layer; ipl, inner plexiform layer; ink inner nuclear layer.\n(§5) Retinal cross-sections from normal mice or 5 days after optic nerve crush, with or without TPEN treatment. Sections were immunostained for the anti-apoptotic protein Bcl-xL or the pro-apoptotic enzymes Caspase-3 or -8. Optic nerve injury causes a marked elevation of Caspases-3 and -8 and a decline in Bcl-xL. TPEN diminishes the expression of Caspases-3 and -8 and attenuates the decline in Bcl-xL gcl: ganglion cell layer; ipl, inner plexiform layer; inl, inner nuclear layer."}, "[3]": {"system": "free Zn^2+ in the inner plexiform layer of the retina", "experiment": "Free Zn2+ in the retina after optic nerve injury by autometallography (AMG)", "type": "in vivo, mouse", "details": "chelator injected intraocularly", "procedure": "A) and B) Mice underwent unilateral optic nerve injury and received i.p. injections of sodium selenite immediately afterwards. Levels of free Zn^2+ increase within 6 hours. C) and D) TPEN (100 μM injections starting 1 day before nerve injury) suppresses the increase in free Zn^2+. The temporal resolution of this method is limited by the time delay for TPEN to reach the retina.\nWe investigated the hypothesis that the liberation of free Zn2+ plays a role in RGC death after axonal injury.\nTo investigate the possible relationship between ionic Zn^2+ and nerve regeneration, we used autometallography (AMG) to examine changes in the retina, injecting Na2SeO3 i.p. at various times after ONC and euthanizing mice 6 hr later. We detected a dramatic increase in labeling in the IPL, the layer of the retina that contains synaptic inputs from retinal interneurons onto RGC dendrites, especially in 2 sublayers (FIG. 11B). IPL labeling in-creased up to 24 hr but declined by 3 days, at which time labeling appeared in RGCs themselves. […] This interpretation is supported by studies using a membrane-permeable fluorescent Zn^2+ sensor, Zinpyr1, which has a strong preference for Zn^2+ over Ca^2+ (41). […] As with AMG, Zinpyr1 labeling was elevated in RGCs but not IPL at 3 days (FIG. 11K). The Zn^2+ transporter ZnT3 is also localized in the IPL (FIG. 11L)."}, "Caspase-3": {"system": "Caspase-3", "experiment": "Caspase-3 immunostaining of retinal cross-sections 5 days after optic nerve crush", "type": "in vivo, mouse", "excerpt": "as §4, §5"}, "Adult rat RGCs": {"system": "Adult rat RGCs", "experiment": "Axon outgrowth in cultured adult RGCs in defined media", "type": "cell-based", "details": "ZX1 10 μM; with or without forskolin, mannose, oncomodulin"}, "[4]": {"system": "porcine liver esterase (PLE)", "experiment": "Enzymatic cleavage by esterase followed by UV/vis", "type": "in vitro ADME", "details": "25% MeOH/PBS at 37° C., 0.2 unit/ml porcine liver esterase", "procedure": "A) change of UV/vis spectrum of 3 in 25% MeOH/PBS upon addition of esterase at 37° C. The final spectrum matched the spectrum of ZX1 (B). A) Insert: the decrease of absorbance at 340 nm.\nThe AcOTFMB sulfonate ester, 1, was synthesized with 88% yield by esterifying 2-nitrobenzenesulfonyl chloride with the corresponding alcohol in the presence of DABCO as the base. Reduction of the nitro functionality with hydrogen afforded the aniline, 2, with 99% yield. The dipicolylamine (DPA) zinc-binding unit can be installed to the aniline via reduction amination to afford the target molecule, 3, in 10% yield (Scheme 1). […] In 25% MeOH/PBS at 37° C., upon introduction of 0.2 unit/ml porcine liver esterase (PLE), The UV/vis spectrum gradually changes with an isosbestic point of 317 nm, to produce a peak at 307 nm (FIG. 10)."}, "[5]": {"experiment": "Hydrolytic stability of the sulfonate ester at pH 7", "type": "physicochemical"}, "[6]": {"details": "injected into the eye just after ONC and again after 4 days"}}, "note": "Several values for one entry are separate records, joined by “and”; a condition that tells them apart may be missing. Identical values can stand only once. Entries after “also recorded” stand apart in the source; their conditions may differ."}
{"compound": "O=C(O)CN(CCN(CC(=O)O)CC(=O)O)CC(=O)O.[Ca]", "note": "[CaEDTA]", "values": [{"measurement": "effect on axon regeneration", "setting": "[1]", "result": "led to axon outgrowth"}, {"measurement": "effect on RGC survival 2 weeks after ONC", "setting": "[2]; [6]", "result": "doubled"}, {"measurement": "effect on RGC survival 2 weeks after ONC", "setting": "[2]; injected into the eye just after ONC and again after 4 days, listed as Ca-EDTA", "result": "promotes cell survival"}]}
{"compound": "c1ccc(CN(CCN(Cc2ccccn2)Cc2ccccn2)Cc2ccccn2)nc1", "note": "[TPEN, N,N,N′,N′-tetrakis(2-pyridylmethyl)ethylenediamine]", "values": [{"measurement": "injury-induced decrease in Bcl-xL", "setting": "Bcl-xL", "result": "suppressed; also recorded: partially blocks Bcl-xL loss after ONC"}, {"measurement": "free Zn2+ level / AMG labeling in the retina after optic nerve injury", "setting": "[3]", "result": "diminishes Zn2+ levels; also recorded: blocked injury-induced labeling in the IPL"}, {"measurement": "maximally effective concentration for axon regeneration (unit not given)", "setting": "[1]; in µM", "result": "100-500"}, {"measurement": "added effect of pre-treatment (additional injection one day before ONC) on axon regeneration", "setting": "[1]", "result": "markedly increased the number of regenerating axons; also recorded: augmented the amount of regeneration"}, {"measurement": "most effective concentration for axon regeneration", "setting": "[1]", "result": 100, "unit": "µM"}, {"measurement": "effect on axon regeneration", "setting": "[1]", "result": "led to axon outgrowth"}, {"measurement": "axon regeneration in combination with pten gene deletion", "setting": "[1]", "result": "much greater effects on regeneration than either one alone; also recorded: double"}, {"measurement": "axon regeneration when injected on D3", "setting": "[1]; single administration 3 d after ONC", "result": "did not promote regeneration"}, {"measurement": "injury-induced increase in Caspase-3", "setting": "Caspase-3", "result": "suppressed; also recorded: diminishes the number of Caspase-3 positive cells"}, {"measurement": "added effect of pre-treatment (additional injection one day before ONC) on RGC survival", "setting": "[2]; compared with injections on day 0 and day 4 only", "result": "not augmented; also recorded: did not enhance RGC survival"}, {"measurement": "effect on RGC survival 2 weeks after ONC", "setting": "[2]; [6]", "result": "protected RGCs"}, {"measurement": "most effective concentration for RGC survival", "setting": "[2]; intraocular, day 0 and day 4 after optic nerve crush, survival at 2 weeks", "result": 100, "unit": "µM"}, {"measurement": "RGC survival in combination with pten gene deletion", "setting": "[2]; pten deleted in RGCs by AAV2-Cre, 2 weeks", "result": "no additional effect"}, {"measurement": "RGC survival when chelator given only on Day 3", "setting": "[2]", "result": "fully protective"}, {"measurement": "long-lasting RGC survival", "setting": "[2]; up to 12 wk after ONC", "result": "enduring protection"}]}
{"compound": "Agitoxin-2: blocker of Shaker family K+ channels Kv1.1 and 1.3", "values": [{"measurement": "RGC survival after optic nerve injury with K+ channel blockers", "setting": "[2]; FIG. 16", "result": "only a small effect on RGC survival"}, {"measurement": "RGC survival in combination with TPEN", "setting": "[2]; FIG. 16", "result": "does not augment the effect of TPEN"}, {"measurement": "RGC survival after optic nerve injury with K+ channel blockers", "setting": "[2]; FIG. 16, listed as AgTx2", "result": "slightly improves RGC survival"}]}
{"compound": "O=S(=O)(O)c1ccccc1NCCN(Cc1ccccn1)Cc1ccccn1", "note": "[ZX1]", "values": [{"measurement": "free Zn2+ level / AMG labeling in the retina after optic nerve injury", "setting": "[3]", "result": "blocked injury-induced labeling in the IPL"}, {"measurement": "axon outgrowth of cultured RGCs", "setting": "Adult rat RGCs", "result": "no effect"}, {"measurement": "GAP-43-positive axons at 0.5 mm from crush site", "setting": "[1]; 2 weeks after crush, ZX1 10 μM˜10 mM injection, crush alone 7.05±2.49 axons", "result": "up to 164 axons"}, {"measurement": "maximally effective concentration for axon regeneration (unit not given)", "setting": "[1]", "result": 30, "unit": "µM"}, {"measurement": "added effect of pre-treatment (additional injection one day before ONC) on axon regeneration", "setting": "[1]", "result": "augmented the amount of regeneration"}, {"measurement": "most effective concentration for axon regeneration", "setting": "[1]", "result": 100, "unit": "µM"}, {"measurement": "effect on axon regeneration", "setting": "[1]", "result": "induces extensive regeneration; also recorded: similarly effective in inducing regeneration"}, {"measurement": "axon regeneration when added to Zymosan + cAMP alone", "setting": "[1]; long-term, FIG. 18", "result": "increases the effect of Zymosan+ cAMP alone"}, {"measurement": "axon regeneration when added to Zymosan, elevation of cAMP and pten gene deletion", "setting": "[1]; long-term, examined 12 weeks after chelator", "result": "nearly doubles the amount of regeneration seen at short distances from the injury site"}, {"measurement": "axon regeneration in combination with pten gene deletion", "setting": "[1]", "result": "double"}, {"measurement": "dose dependence of RGC survival", "setting": "[2]; ZX1 between 10 μM and 10 mM", "result": "roughly equally effective in promoting cell survival; also recorded: equally protective against RGC death at all concentrations from 10 μM up"}, {"measurement": "effect on RGC survival 2 weeks after ONC", "setting": "[2]; [6]", "result": "just as effective as TPEN; also recorded: doubled"}, {"measurement": "RGC survival when chelator given only on Day 3", "setting": "[2]", "result": "less effective"}]}
{"compound": "CC[N+](CC)(CC)CC", "note": "[TEA, tetraethylammonium]", "values": [{"measurement": "RGC survival after optic nerve injury with K+ channel blockers", "setting": "[2]; FIG. 16", "result": "blocks RGC death after ONC to the same extent as TPEN; also recorded: strong effect"}, {"measurement": "concentration affording strong protection of RGCs", "setting": "[2]; mouse, in vivo", "result": "< 100 µM and 100 µM"}]}
{"compound": "O=C(O)CN(CCN(CC(=O)O)CC(=O)O)CC(=O)O.[Zn]", "note": "[ZnEDTA]", "values": [{"measurement": "effect on axon regeneration", "setting": "[1]", "result": "not"}, {"measurement": "effect on RGC survival 2 weeks after ONC", "setting": "[2]; mouse, in vivo", "result": "not"}]}
{"compound": "CC(=O)Oc1ccc(C(OS(=O)(=O)c2ccccc2NCCN(Cc2ccccn2)Cc2ccccn2)C(F)(F)F)cc1", "note": "(stereo not shown) [compound 3, 4-(1-(((2-((2-(bis(pyridin-2-ylmethyl)amino)ethyl)amino)phenyl)sulfonyl)oxy)-2,2,2-trifluoroethyl)phenyl acetate]", "values": [{"measurement": "susceptibility to esterase cleavage", "setting": "[4]", "result": "susceptible to enzymatic cleavage to afford ZX1"}, {"measurement": "stability toward hydrolysis", "setting": "[5]", "result": "stable at pH 7 for several days without being hydrolyzed"}]}
